Like-named read-outs stand apart in the source and are kept apart here.
Assays:
[1] = molecular target: T1, 6-phosphogluconate dehydrogenase (6PGD) (Homo sapiens, UniProt P52209); assay: tryptophan fluorescence-based binding assay with purified human 6PGD
T1 sequence (P52209 1-483): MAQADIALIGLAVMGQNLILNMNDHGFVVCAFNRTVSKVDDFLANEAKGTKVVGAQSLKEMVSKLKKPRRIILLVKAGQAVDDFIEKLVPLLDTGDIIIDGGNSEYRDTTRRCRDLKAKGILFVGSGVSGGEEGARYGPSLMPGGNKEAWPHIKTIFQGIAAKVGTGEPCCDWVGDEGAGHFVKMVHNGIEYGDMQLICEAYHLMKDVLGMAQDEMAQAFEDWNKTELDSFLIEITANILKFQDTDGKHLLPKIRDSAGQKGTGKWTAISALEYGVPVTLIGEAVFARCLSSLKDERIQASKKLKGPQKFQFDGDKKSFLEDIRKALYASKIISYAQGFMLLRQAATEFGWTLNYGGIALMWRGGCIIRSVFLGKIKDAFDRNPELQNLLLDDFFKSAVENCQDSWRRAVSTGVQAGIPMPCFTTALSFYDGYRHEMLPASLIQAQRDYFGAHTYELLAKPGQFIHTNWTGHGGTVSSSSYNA

[2] = molecular target: T1, 6-phosphogluconate dehydrogenase (6PGD); assay: as above; remark: listed apart in the source

Kd [1] [µM]	Kd [2] [µM]	SMILES
26		COc1cc(O)c2c(c1)C(=O)c1cc(C)cc(O)c1C2=O [Physcion, 1,8-Dihydroxy-3-methoxy-6-methyl-anthraquinone]
	17.1	COc1cccc2c1C(=O)c1c(O)cccc1C2=O [S3, 1-Hydroxy-8-methoxy-anthraquinon]
